Data: the NIST ThermoML archive (doi:10.1021/je200721d)

Experiment: xn = mol fraction of the nth substance listed
Settings: Liquid, Vibrating tube method

CCCCCCCCCC [decane] + CCCCCC
Settings | mass density [kg/m3]
313.18 K, 22000 kPa, x2 = 0.7524 | 687.87
313.18 K, 23000 kPa, x2 = 0.0456 | 730.42
313.18 K, 23000 kPa, x2 = 0.7524 | 688.65
313.18 K, 24000 kPa, x2 = 0.0456 | 731.08
313.18 K, 24000 kPa, x2 = 0.7524 | 689.4
313.18 K, 25000 kPa, x2 = 0.0456 | 731.73
313.18 K, 25000 kPa, x2 = 0.7524 | 690.14
313.21 K, 1000 kPa, x2 = 0.4968 | 688.23
313.21 K, 2000 kPa, x2 = 0.4968 | 689.24
313.21 K, 3000 kPa, x2 = 0.4968 | 690.26
313.21 K, 4000 kPa, x2 = 0.4968 | 691.19
313.21 K, 5000 kPa, x2 = 0.4968 | 692.15
313.21 K, 6000 kPa, x2 = 0.4968 | 693.12
313.21 K, 7000 kPa, x2 = 0.4968 | 694.03
313.21 K, 8000 kPa, x2 = 0.4968 | 694.95
313.21 K, 9000 kPa, x2 = 0.4968 | 695.84
313.21 K, 10000 kPa, x2 = 0.4968 | 696.74
313.21 K, 10990 kPa, x2 = 0.4968 | 697.6
313.21 K, 12000 kPa, x2 = 0.4968 | 698.47
313.21 K, 13000 kPa, x2 = 0.4968 | 699.32
313.21 K, 14000 kPa, x2 = 0.4968 | 700.16
313.21 K, 15000 kPa, x2 = 0.4968 | 700.95
313.21 K, 16000 kPa, x2 = 0.4968 | 701.76
313.21 K, 17000 kPa, x2 = 0.4968 | 702.55
313.21 K, 18000 kPa, x2 = 0.4968 | 703.34
313.21 K, 19000 kPa, x2 = 0.4968 | 704.08
313.21 K, 20000 kPa, x2 = 0.4968 | 704.83
313.21 K, 21000 kPa, x2 = 0.4968 | 705.58
313.21 K, 22000 kPa, x2 = 0.4968 | 706.34
313.21 K, 23000 kPa, x2 = 0.4968 | 707.05
313.21 K, 24000 kPa, x2 = 0.4968 | 707.76
313.21 K, 25000 kPa, x2 = 0.4968 | 708.45
322.99 K, 1000 kPa, x2 = 0.8991 | 645.29
322.99 K, 2000 kPa, x2 = 0.8991 | 646.4
322.99 K, 3000 kPa, x2 = 0.8991 | 647.52
322.99 K, 4000 kPa, x2 = 0.8991 | 648.64
322.99 K, 5000 kPa, x2 = 0.8991 | 649.64
322.99 K, 6000 kPa, x2 = 0.8991 | 650.89
322.99 K, 7000 kPa, x2 = 0.8991 | 652.02
322.99 K, 8000 kPa, x2 = 0.8991 | 653.14
322.99 K, 9000 kPa, x2 = 0.8991 | 654.27
322.99 K, 10000 kPa, x2 = 0.8991 | 655.38
322.99 K, 11000 kPa, x2 = 0.8991 | 656.46
322.99 K, 12000 kPa, x2 = 0.8991 | 657.57
322.99 K, 13000 kPa, x2 = 0.8991 | 658.64
322.99 K, 14000 kPa, x2 = 0.8991 | 659.7
322.99 K, 15000 kPa, x2 = 0.8991 | 660.74
322.99 K, 16000 kPa, x2 = 0.8991 | 661.75
322.99 K, 17000 kPa, x2 = 0.8991 | 662.76
322.99 K, 18000 kPa, x2 = 0.8991 | 663.71
322.99 K, 19000 kPa, x2 = 0.8991 | 664.67
322.99 K, 20000 kPa, x2 = 0.8991 | 665.59
322.99 K, 21000 kPa, x2 = 0.8991 | 666.49
322.99 K, 22000 kPa, x2 = 0.8991 | 667.35
322.99 K, 23000 kPa, x2 = 0.8991 | 668.19
322.99 K, 24000 kPa, x2 = 0.8991 | 669.02
322.99 K, 25000 kPa, x2 = 0.8991 | 669.89
323.14 K, 1000 kPa, x2 = 0.0456 | 705.56
323.14 K, 1000 kPa, x2 = 0.2185 | 697.1
323.14 K, 1000 kPa, x2 = 0.4968 | 679.98
323.14 K, 2000 kPa, x2 = 0.0456 | 706.52
323.14 K, 2000 kPa, x2 = 0.2185 | 698.02
323.14 K, 2000 kPa, x2 = 0.4968 | 681.03
323.14 K, 3000 kPa, x2 = 0.0456 | 707.47
323.14 K, 3000 kPa, x2 = 0.2185 | 698.97
323.14 K, 3000 kPa, x2 = 0.4968 | 682.14
323.14 K, 4000 kPa, x2 = 0.0456 | 708.4
323.14 K, 4000 kPa, x2 = 0.2185 | 699.88
323.14 K, 4000 kPa, x2 = 0.4968 | 683.21
323.14 K, 5000 kPa, x2 = 0.0456 | 709.32
323.14 K, 5000 kPa, x2 = 0.2185 | 700.82
323.14 K, 5000 kPa, x2 = 0.4968 | 684.24
323.14 K, 6000 kPa, x2 = 0.0456 | 710.22
323.14 K, 6000 kPa, x2 = 0.2185 | 701.75
323.14 K, 6000 kPa, x2 = 0.4968 | 685.27
323.14 K, 7000 kPa, x2 = 0.0456 | 711.11
323.14 K, 7000 kPa, x2 = 0.2185 | 702.67
323.14 K, 7000 kPa, x2 = 0.4968 | 686.28
323.14 K, 8000 kPa, x2 = 0.0456 | 711.99
323.14 K, 8000 kPa, x2 = 0.2185 | 703.58
323.14 K, 8000 kPa, x2 = 0.4968 | 687.29
323.14 K, 9000 kPa, x2 = 0.0456 | 712.86
323.14 K, 9000 kPa, x2 = 0.2185 | 704.45
323.14 K, 9000 kPa, x2 = 0.4968 | 688.27
323.14 K, 10000 kPa, x2 = 0.0456 | 713.72
323.14 K, 10000 kPa, x2 = 0.2185 | 705.32
323.14 K, 10000 kPa, x2 = 0.4968 | 689.22
323.14 K, 10990 kPa, x2 = 0.0456 | 714.56
323.14 K, 10990 kPa, x2 = 0.2185 | 706.19
323.14 K, 10990 kPa, x2 = 0.4968 | 690.14
323.14 K, 12000 kPa, x2 = 0.0456 | 715.39
323.14 K, 12000 kPa, x2 = 0.2185 | 707.05
323.14 K, 12000 kPa, x2 = 0.4968 | 691.07
323.14 K, 13000 kPa, x2 = 0.0456 | 716.21
